Measured values reported in patent US20080108641A1, “Compounds for treating inflammatory disorders, demyelinating disdorders and cancers” (priority 2006, published 2008).

Tests used:
[1] = test system: arthritis induced by monoclonal antibodies raised against type II collagen, plus LPS; experiment: Collagen monoclonal antibody (mABs) + LPS induced arthritis, hind paw volume; assay type: in vivo, BALB/c strain mice; conditions: for inhibition of increase in hind paw volume: 30 mg/kg orally x3
Experimental: Groups of 3 BALB/c strain mice, 6-7 weeks of age, were used for the induction of arthritis by monoclonal antibodies (mABs) raised against type II collagen, plus lipopolysaccharide (LPS). A combination of 4 different mABs (D8, F10, DI-2G and A2) totaling 4 mg/mouse was administered to the animal intravenously on day 0, followed by intravenous challenge with […] of LPS 72 hours later (day 3). From day 3, test substance and vehicle were each administered orally once daily for 3 consecutive days. For each animal, volumes of both hind paws were measured using a plethysmometer with water cell (12 mm diameter) on Days 0, 5, 7, 10, 14 and 17.
C0 (Cn): volume of day 0 (day n) in vehicle control
T0 (Tn): volume of day 0 (day n) in test compound-treated group
Reduction of edema in the hind paws by 30% or more is considered significant.

[2] = test system: Experimental Autoimmune Encephalomyelitis (EAE); experiment: Acute stage Experimental Autoimmune Encephalomyelitis (EAE) model, daily dosing
Experimental: Accordingly, three randomized cohorts of guinea pigs with EAE induced by the method of Example 2, were treated, respectively, with 6 mg/kg of Symadex™ (full salt hydrate) and 0.35 mg/kg of mitoxantrone. Animals were treated daily, by intraperitoneal injection, for 15 days, starting on day 7 post immunization. Controls were treated with vehicle. We reasoned that 15 consecutive, 6 mg/kg doses of Symadex™ would represent a level of drug exposure that would be commensurate with the “20 mg/kg every 72 hours” regimen in Example 4 and consistent with a mid level exposure between the 20 mg/kg and the 40 mg/kg schedule given weekly, in Example 2. The mitoxantrone dose was selected to reflect a typical high dose given to rats or mice by daily dosing in the prior art, but allometrically scaled to the guinea pig.

[3] = test system: T-lymphocyte cells isolated from thymus; experiment: Cell proliferation, T-Cell + Con A ([3H]thymidine incorporation); assay type: cell-based, balb/c mice; conditions: Mus musculus
Experimental: T-lymphocyte cells isolated from thymus of balb/c mice weighing 17±1 g were used. Test compound and/or vehicle is incubated with the cells (4×10^6/ml) in the presence of 3 μg/mL Concanavalin A (Con A) in AIM-V medium pH 7.4 at 37° C. for 24 hours. [^3H]Thymidine (120 nM) was then added for an additional overnight incubation period. Thymidine incorporation was assessed by liquid scintillation counting. Compounds were screened at 10, 1, 0.1, 0.01 and 0.001 μM.
Test compound-induced suppression of cell proliferation by 50 percent or more (≧50%) relative to vehicle control response indicates significant inhibitory activity.

[4] = human dose of 540 mg/m^2 body surface area (as free base); cited from earlier work
IL-10 = experiment: Mediator release, IL-10 (Con A-stimulated PBML, sandwich ELISA); assay type: cell-based; conditions: Homo sapiens
Experimental: In this experiment, test compound and/or vehicle were preincubated with human peripheral blood mononuclear leukocyte (PBML, 1×10^6/ml) in RPMI buffer pH 7.4 for 2 hours. Concanavalin A (Con A, 20 μg/ml) was then added to stimulate the cells overnight in 5% CO2 at 37° C. IL-4 and IL-10 cytokine levels in the conditioned medium were then quantified using a sandwich ELISA kit. Compounds were screened at 10, 1, 0.1, 0.01 and 0.001 μM.

CCN(CC)CCNc1ccc2ncn3c4ccc(O)cc4c(=O)c1c23 [Symadex™]
increase in hind paw volume ([1]; day 5, 3 consecutive daily oral doses at 30 mg/kg from day 3, vehicle 42%): 32%
inhibition of increase in hind paw volume ([1]; day 10): 61%
increase in hind paw volume ([1]; day 10, 3 consecutive daily oral doses at 30 mg/kg, vehicle 75%): 29%
inhibition of increase in hind paw volume ([1]; day 14): 74%
increase in hind paw volume ([1]; day 14, 3 consecutive daily oral doses at 30 mg/kg, vehicle 70%): 18%
inhibition of increase in hind paw volume ([1]; day 17): 59%
increase in hind paw volume ([1]; day 17, 3 consecutive daily oral doses at 30 mg/kg, vehicle 47%): 19%
clinical score course (neurological impairment) ([2]; daily i.p. for 15 days from day 7 post immunization, Symadex 6 mg/kg, mitoxantrone 0.35 mg/kg): initial rise in neurological impairment is arrested
statistical significance of therapeutic effect on clinical score vs control (Mann-Whitney rank-sum) ([2]; daily i.p. for 15 days, Symadex 6 mg/kg (p below 0.05), mitoxantrone 0.35 mg/kg): reaches statistical significance
pathology scores: perivascular cuffing (P), myelitis (E) and demyelination (D) vs control ([2]; necropsy after 15 daily doses, p value<0.05 from control): reducing the perivascular cuffing (P), myelitis (E) and demyelination (D)
IC50 [3]: 0.014 µM
inhibition at 0.001 µM ([3]; read-out: % Growth Inhibition): 10%
inhibition at 0.01 µM ([3]; read-out: % Growth Inhibition): 44%
inhibition at 0.1 µM ([3]; read-out: % Growth Inhibition): 82%
inhibition at 1 µM ([3]; read-out: % Growth Inhibition): 103%
inhibition at 10 µM ([3]; read-out: % Growth Inhibition): 104%
tolerability of single dose [4]: safe and well-tolerated
inhibition at 0.001 µM (IL-10; read-out: % inhibition of IL-10 release, 1 nM, read-out: % Growth Inhibition): 1%
inhibition at 0.01 µM (IL-10; read-out: % inhibition of IL-10 release, 10 nM, read-out: % Growth Inhibition): 16%
inhibition at 0.1 µM (IL-10; read-out: % inhibition of IL-10 release, 0.1 μM, read-out: % Growth Inhibition): 16%
inhibition at 1 µM (IL-10; read-out: % inhibition of IL-10 release, 1 μM, read-out: % Growth Inhibition): 39%
inhibition at 10 µM (IL-10; read-out: % inhibition of IL-10 release, 10 μM, read-out: % Growth Inhibition): 99%
IC50 (IL-10; IL-10 release): 1.2 µM
